Assay results as given in patent US20050215635A1, “Diarylheptanoid compounds and uses thereof” (priority 2004, published 2005).
Entries after “also recorded” stand apart in the source; their conditions may differ.

What was measured:
[1] = tested on: p44/42 MAPK phosphorylation; assay: Western blotting of LPS induced phosphorylation of p44/42 MAPK in RAW 264.7 cells; type: cell-based, mouse; conditions: HMP 25 μM + LPS (0.5 μg/ml), RAW 264.7, 30 min (not at 60 min)
Method: FIG. 5A and 5B. Effect of HMP on LPS induced MAPKs activation. FIG. 5A, Total protein lysates of RAW 264.7 were prepared after treatment with HMP and/or LPS for indicated times and 40 μg of protein lysates were resolved and probed for phosphorylated (pp44/42 and pp38) and basal p44/42 and p38, using specific monoclonal antibodies as described in material and methods. FIG. 5B, Integrated density of phosphorylated p44/42 (pp44/42) as measured by Scion software. This experiment was repeated 4 times with similar results.
At indicated time points, cells were rapidly washed with ice-cold PBS and solubilized in cold lysis buffer containing 10 mM Tris-base, 5 mM EDTA, 50 mM NaCl, 1% Triton X-100, 5 mM phenylmethylsulfonyl fluoride (PMSF), 2 mM sodium orthovanadate, 10 μg/ml leupeptin, 25 μg/ml aprotinin, 1 mM sodium pyrophosphate, and 20% glycerol. […]
Equal amount of protein (40 μg) from each sample was loaded on SDS-polyacrylamide electrophoresis gel (8 and 10% separating gels for iNOS and p42/44^MAPK, respectively) and resolved for 1.5 h at 120 V in buffer containing 95 mM Tris-HCl, 960 mM glycine, and 0.5% SDS. […] Specific bands were detected by enhanced chemiluminescence's detection system (Amersham-Pharmacia biotech, NJ, USA) and the membrane was exposed to X-ray film. […]

[2] = tested on: Du-145 prostate tumor cells; assay: MTT-microculture tetrazolium cell viability assay / induction of apoptosis in Du-145; type: cell-based
Method: The rhizomes of Alpinia officinarum were purchased from Nuherbs Co. (Oakland, Calif.). Du-145 prostate tumor cells were obtained from the American Type Culture Collection (ATCC). Cells were maintained at 37° C. in an atmosphere of 5% CO2 and grown in Roswell Park Memorial Institute (RPMI) media 1640 (GIBCO/BRL) with 10% fetal bovine serum and with 5% penicillin and streptomycin.
The powdered roots of Alpinia officinarum were extracted with methanol and concentrated under vacuum using rotary evaporation. The dried residue was then partitioned with hexanes, ethyl acetate and 1-butanol successively. The three extracts were subjected to bioassays.
The dried ethyl acetate extract was then chromatographed on a normal phase silica gel column (2.5×30 cm) to perform bioassay-directed fractionation. The extract was first dissolved in methanol and loaded onto the column packing material. The prepared extract was then placed on top of the column and elution was performed using a solvent mixture of chloroform/methanol with an increasing amount of methanol (30:1, 20:1, 10:1, 5:1, 0:100; each 1000 mL). Successive fractions were collected and tested for biological activity. […] This fraction was then rechromatographed on a semipreparative Zorbax Rx-C18 reversed phase HPLC column (9.4 mm×240 mm, 5 μm) purchased from MacMod Analytical (Chadds Ford, Pa.). Compounds were eluted by an isocratic solvent system: 55% A, water with 0.05% formic acid (FA); 45% B, ACN (v/v) at a flow rate of 4 mL/min. The wavelength monitored was 205 nm. Successive fractions (1-3) were collected and sent for biological testing again.
Cellular growth in the presence or absence of experimental agents was determined using the modified method as previously described MTT-microculture tetrazolium assay (World Health Organization (ED.), Medicinal Plants in China, WHO Regional Publications, 1989, 21). Briefly, rapidly growing cells were harvested, counted, and inoculated at the appropriate concentrations (100 μL volume) into 96-well micro-titer plates using a multichannel pipet. After 24 hours, AO-1 to AO-5 were applied in different concentrations to triplicate culture wells, and cultures were incubated for 72 hours at 37° C. MTT ( Sigma, St. Louis, Mo.) was prepared at 2 mg/ml in Phosphate buffered saline (PBS) and 50 μL were added to microculture wells. After 4 hour incubation at 37° C., […] were removed from each well, and 150 μL of 100% DMSO were added to solubilize the MTT-formazan product. After thorough mixing with a mechanical plate mixer, absorbence was measured at 570 nm using a Dynatech microplate reader. […] This assay is based on the reduction of MTT tetrazolium salt to a formazan product by the metabolic activity of live cells and which was measured in a multiwell scanning spectrophotometer. Cell line growth and growth inhibition were expressed in terms of mean absorbance units and following the substraction of mean background absorbance.

COc1cc(CC/C=C/C(=O)CCc2ccccc2)ccc1O [AO-4, 7-(4″-hydroxy-3″-methoxyphenyl)-1-phenyl-hept-4-en-3-one]
LPS-induced phosphorylation of p44/42 MAPK (in words) [1]: markedly inhibited | IC50 ([2]; Homo sapiens, Du-145 prostate tumor cells, MTT, 72 hours incubation, drug concentration giving 50% inhibition of growth, read-out: IC50 (μM), Effects of Diarylheptanoids on Inducing Apoptosis in DU-145 Cancer Cell Line): 12.5 µM | activity in bioassay: inducing apoptosis in Du-145 cancer cell line (in words) ([2]; bioassay-directed fractionation of Alpinia officinarum): some activity; also recorded: most potent
